Reference: publication PMC3368886, “ATPase Cycle and DNA Unwinding Kinetics of RecG Helicase” (PLoS ONE, 2012)

Columns and labels:
[1] = molecular target: T1, RecG (Thermotoga maritima, UniProt Q9WY48); set-up: method as in PMID 16363810; details: much lower concentration of DNA; cited from earlier work
T1 construct: made in house
T1 sequence (Q9WY48 1-780): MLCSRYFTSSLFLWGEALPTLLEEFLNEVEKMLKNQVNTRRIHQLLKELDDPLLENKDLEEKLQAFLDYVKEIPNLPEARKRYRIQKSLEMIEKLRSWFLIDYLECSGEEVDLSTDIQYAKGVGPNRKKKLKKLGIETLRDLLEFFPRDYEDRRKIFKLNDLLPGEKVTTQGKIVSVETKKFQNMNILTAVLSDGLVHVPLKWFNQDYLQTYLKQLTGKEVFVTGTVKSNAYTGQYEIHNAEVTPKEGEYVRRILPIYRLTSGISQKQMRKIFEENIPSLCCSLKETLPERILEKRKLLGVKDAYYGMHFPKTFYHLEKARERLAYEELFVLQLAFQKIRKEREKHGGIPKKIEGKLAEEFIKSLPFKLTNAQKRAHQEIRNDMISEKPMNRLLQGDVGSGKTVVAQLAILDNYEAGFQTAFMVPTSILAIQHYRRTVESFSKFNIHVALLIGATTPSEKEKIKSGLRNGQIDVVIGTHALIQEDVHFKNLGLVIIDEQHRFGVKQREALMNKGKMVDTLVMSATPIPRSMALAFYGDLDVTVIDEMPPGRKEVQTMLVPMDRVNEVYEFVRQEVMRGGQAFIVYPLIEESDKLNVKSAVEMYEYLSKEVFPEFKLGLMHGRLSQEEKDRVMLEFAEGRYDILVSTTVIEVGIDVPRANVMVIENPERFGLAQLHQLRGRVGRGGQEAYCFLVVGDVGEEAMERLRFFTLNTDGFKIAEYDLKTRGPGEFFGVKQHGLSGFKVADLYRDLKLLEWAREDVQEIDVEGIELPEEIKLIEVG

[2] = molecular target: T2, RecG⋅DNA(A40:B40) (Thermotoga maritima, UniProt Q9WY48); assay: Kinetic model simulation of single turnover of mantATP; assay type: biochemical
T2 construct: made in house
T2 sequence (Q9WY48 1-780): T1 sequence (Q9WY48 1-780)
Protocol: In order to test the data obtained with mantATP for consistency, a simple kinetic model for the ATPase mechanism was used to simulate the data in Figure 4A. The model was based on the scheme in Figure 2A, but included a two-step triphosphate binding as in Figure 2B. The model assumed that Pi release is irreversible and mantADP remains bound under these conditions as its K d (<50 nM) is much less than the experimental concentrations. The difference in fluorescence intensity between protein-bound mantATP and mantADP was included in the modeling with bound mantATP representing 20% of the overall increase, as shown experimentally. The best-fit simulation is shown in Figure 4B, which gave mantATP binding at 5.7 s^−1, followed by a rapid step (“conformation change”) of 30 s^−1, hydrolysis at 0.25 s^−1 and Pi release is fast (>10 s^−1). […] There is a discrepancy with the fit to the data at long times, as the experimental traces are slightly biphasic, which could be due to a small proportion of the protein having modified activity due to damage, for example.
Data were fitted to theoretical equations using the stopped-flow software or Grafit. Kinetic simulations were performed using Berkeley Madonna (Version 8.3, University of California at Berkeley) and using Global Kinetic Explorer (Kintek). Global fits were performed using Global Kinetic Explorer.

[3] = molecular target: T3, RecG with three-strand DNA junction (A40:B40:C19) (Thermotoga maritima, UniProt Q9WY48); assay: Single turnover ATPase measurements with three-strand junction; assay type: biochemical
T3 construct: made in house
T3 sequence (Q9WY48 1-780): T1 sequence (Q9WY48 1-780)
Protocol: Therefore, mantATP binding, quench-flow and phosphate measurements were carried out using with sub-stoichiometric mantATP, but with a non-complementary three-strand DNA junction (A40:B40:C19) to form a lagging strand duplex (as defined in Figure 1A). With excess mantATP, the duplex arm of this junction was unwound by the helicase, leaving RecG bound to the two-strand junction with the third strand displaced. With sub-stoichiometric mantATP, there was only a single turnover, so only partial unwinding of this DNA substrate occurred. The kinetics (Figure S2) were similar to those with the two-strand junction with mantATP binding at 4.2 (±0.4) s^−1, hydrolysis at 0.39 (±0.1) s^−1 and fast Pi release.
Supplementary file pone.0038270.s002.tif: Figure S2 Kinetic measurements of mantATP with excess of RecG and a Three-strand DNA Junction. The concentrations for all experiments were 0.5 µM mantATP, 2.5 µM RecG, 5 µM DNA Junction (A40:B40:C19) and 10 µM MDCC-PBP (for Pi measurement). All measurements were carried out under the conditions of Figure 4. Time course of mant fluorescence (continuous line), mantADP formation (circles) and Pi release (dashed line). […] (TIF) Click here for additional data file.

[4] = molecular target: T2, RecG⋅DNA(A40:B40); assay: Quench-flow measurement of cleavage step (mantADP formation, HPLC); assay type: biochemical
Protocol: Single turnover measurements of the cleavage step and Pi release were performed with excess RecG⋅DNA over mantATP using conditions of the mantATP fluorescence measurements, described above. Quench-flow measurements allowed the formation of nucleoside diphosphate to be monitored with high time resolution. MantATP was rapidly mixed with excess RecG⋅DNA, and the reaction mix was quenched in acid at particular time points. The mix was then analyzed by HPLC to quantify mantATP and mantADP, giving the time course of mantADP formation (Figure 4A). This time course had similar kinetics to the slow phase of the mant fluorescence trace (0.2 s^−1), supporting the idea that this phase is mantADP formation.
These were carried out using a HiTech RQF-63 apparatus using different length loops and flow rates to age reactions before quenching using 10% perchloric acid. Samples were analyzed for the ratio of mantATP to mantADP by HPLC, as described.

[5] = three-strand junction A40:B40:C19, sub-stoichiometric mantATP

| SMILES | K m previously reported [1] [µM] | k cat previously reported [1] [s⁻¹] | Pi release (best-fit simulation) [2] [s⁻¹] | hydrolysis (best-fit simulation) [2] [s⁻¹] | mantATP binding (best-fit simulation) [2] [s⁻¹] | rapid step (conformation change) (best-fit simulation) [2] [s⁻¹] | Pi release ([3]; three-strand junction A40:B40:C19, result in words) | hydrolysis rate [3, 5] | mantATP binding rate [3, 5] | rate of mantADP formation (quench-flow time course) ([4]; 0.5 µM mantATP, 2.5 µM RecG, 5 µM DNA) [s⁻¹] | hydrolytic cleavage slower than ATP ([4]; mantATP vs ATP) [fold] |
| --- | --- | --- | --- | --- | --- | --- | --- | --- | --- | --- | --- |
| Nc1ncnc2c1ncn2[C@@H]1O[C@H](COP(=O)(O)OP(=O)(O)OP(=O)(O)O)[C@@H](O)[C@H]1O [ATP] | 42 | 5.2 | – | – | – | – | – | – | – | – | – |
| CNc1ccccc1C(=O)O[C@H]1[C@@H](O)[C@H](n2cnc3c(N)ncnc32)O[C@@H]1COP(=O)(O)OP(=O)(O)OP(=O)(O)O [mantATP, 2′(3′)-O-(N-methylanthraniloyl)ATP] | – | – | > 10 | 0.25 | 5.7 | 30 | fast | 0.39 (±0.1) s^−1 | 4.2 (±0.4) s^−1 | 0.2 | ~10 |
